One may read the IC50 as the concentration that inhibits the measured activity by half. Low readings indicate inhibition by little substance, high ones a need for much substance.

This test concerns the target T1, human TLR8 (Homo sapiens, UniProt Q9NR97).
T1 sequence (Q9NR97 27-1041): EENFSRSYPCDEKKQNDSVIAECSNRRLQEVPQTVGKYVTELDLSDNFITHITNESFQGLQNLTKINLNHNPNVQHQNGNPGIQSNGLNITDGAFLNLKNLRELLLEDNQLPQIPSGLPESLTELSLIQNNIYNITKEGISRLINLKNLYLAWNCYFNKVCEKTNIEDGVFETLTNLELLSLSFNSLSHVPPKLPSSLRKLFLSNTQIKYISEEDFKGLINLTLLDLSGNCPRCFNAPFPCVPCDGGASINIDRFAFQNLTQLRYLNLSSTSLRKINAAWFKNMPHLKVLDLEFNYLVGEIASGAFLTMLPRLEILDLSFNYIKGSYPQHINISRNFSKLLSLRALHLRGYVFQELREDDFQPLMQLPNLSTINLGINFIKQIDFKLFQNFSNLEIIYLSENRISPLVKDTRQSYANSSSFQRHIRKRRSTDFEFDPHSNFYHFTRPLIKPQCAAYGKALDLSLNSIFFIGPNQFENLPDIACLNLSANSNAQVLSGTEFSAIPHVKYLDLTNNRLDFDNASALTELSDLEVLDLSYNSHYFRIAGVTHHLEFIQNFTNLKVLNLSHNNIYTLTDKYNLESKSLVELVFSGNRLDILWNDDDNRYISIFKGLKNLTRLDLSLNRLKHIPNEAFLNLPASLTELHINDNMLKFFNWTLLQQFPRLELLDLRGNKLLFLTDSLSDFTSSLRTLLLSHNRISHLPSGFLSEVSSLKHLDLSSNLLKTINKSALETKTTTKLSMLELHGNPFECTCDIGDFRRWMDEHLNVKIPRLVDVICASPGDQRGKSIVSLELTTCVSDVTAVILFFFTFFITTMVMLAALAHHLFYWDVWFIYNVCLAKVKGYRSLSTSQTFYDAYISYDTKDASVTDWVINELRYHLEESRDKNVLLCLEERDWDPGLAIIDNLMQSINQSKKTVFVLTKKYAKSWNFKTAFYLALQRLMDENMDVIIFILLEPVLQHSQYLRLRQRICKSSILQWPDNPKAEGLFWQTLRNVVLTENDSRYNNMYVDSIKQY
The test can be described thus: HEK293-Blue-hTLR-8 cells assay (SEAP reporter, R848 stimulation). The format is cell-based. To be noted: HEK293-Blue-hTLR8 cells, R848 ligand, 20 hrs incubation. From the text: A stable HEK293-Blue-hTLR-8 cell line was purchased from InvivoGen (Cat. #: hkb-htlr8, San Diego, Calif., USA). These cells were originally designed for studying the stimulation of human TLR8 by monitoring the activation of NF-κB. A SEAP (secreted embryonic alkaline phosphatase) reporter gene was placed under the control of the IFN-β minimal promoter fused to five NF-κB and AP-1-binding sites. The SEAP was induced by activating NF-κB and AP-1 via stimulating HEK-Blue hTLR8 cells with TLR8 ligands. Therefore the reporter expression was declined by TLR8 antagonist under the stimulation of a ligand, such as R848, for incubation of 20 hrs. The cell culture supernatant SEAP reporter activity was determined using QUANTI-Blue™ kit (Cat. #: rep-qb1, Invivogen, San Diego, Ca, USA) at a wavelength of 640 nm, a detection medium that turns purple or blue in the presence of alkaline phosphatase.
HEK293-Blue-hTLR8 cells were incubated at a density of 250,000˜450,000 cells/mL in a volume of 170 μL in a 96-well plate in Dulbecco's Modified Eagle's medium (DMEM) containing 4.5 g/L glucose, 50 U/mL penicillin, […], […], 2 mM L-glutamine, 10% (v/v) heat-inactivated fetal bovine serum with addition of 20 μL test compound in a serial dilution in the presence of final DMSO at 1% and 10 μL of 60 uM R848 in above DMEM, perform incubation under 37° C. in a CO2 incubator for 20 hrs. Then 20 μL of the supernatant from each well was incubated with 180 μL Quanti-blue substrate solution at 37° C. for 2 hrs and the absorbance was read at 620˜655 nm using a spectrophotometer. The signalling pathway that TLR8 activation leads to downstream NF-κB activation has been widely accepted, and therefore similar reporter assay was modified for evaluating TLR8 antagonist.
The compound `C[C@@H]1CN(c2ccc(C#N)n3nccc23)C[C@H](CN2CCC(N3CCN(C)CC3)CC2)O1` [Example 1, 4-[(2R,6S)-2-methyl-6-[[4-(4-methylpiperazin-1-yl)-1-piperidyl]methyl]morpholin-4-yl]pyrazolo[1,5-a]pyridine-7-carbonitrile] had an IC50 of 28 nM.

Take `C[C@@H]1CN(c2ccc(C#N)n3ncc(F)c23)C[C@H](CN2CCCC3(CCNC3)C2)O1` (stereo partly drawn) [Example 68, 3-fluoro-4-[(2S,6R)-2-(2,7-diazaspiro[4.5]decan-7-ylmethyl)-6-methyl-morpholin-4-yl]pyrazolo[1,5-a]pyridine-7-carbonitrile]: the IC50 worked out at 11 nM.

`CC1CNCCN1C[C@H]1CN(c2ccc(C#N)n3nccc23)C[C@@H](C)O1` (single isomer, unassigned) [Example 50B]: it took 52 nM to reach half-maximal inhibition (IC50).

As for `C[C@@H]1CN(c2ccc(C#N)n3nccc23)C[C@H](CN2CC3CCNCC32)O1` (stereo partly drawn) [Example 56, 4-[(2S,6R)-2-(3,8-diazabicyclo[4.2.0]octan-8-ylmethyl)-6-methyl-morpholin-4-yl]pyrazolo[1,5-a]pyridine-7-carbonitrile], the IC50 came to 480 nM.

Compound `C[C@@H]1CN(c2ccc(C#N)n3nccc23)C[C@H](CN2CC[C@@H]3CNCC32)O1` (stereo partly drawn) [Example 62, 4-[(2R,6S)-2-methyl-6-[[cis-(3aR,6aR)-3,3a,4,5,6,6a-hexahydro-2H-pyrrolo[3,4-b]pyrrol-1-yl]methyl]morpholin-4-yl]pyrazolo[1,5-a]pyridine-7-carbonitrile] had an IC50 of 260 nM.

As for `C[C@@H]1CN(c2ccc(C#N)n3nccc23)C[C@H](CN2CCC3(CCNCC3)CC2)O1` [Example 3, 4-[(2S,6R)-2-(3,9-diazaspiro[5.5]undecan-3-ylmethyl)-6-methyl-morpholin-4-yl]pyrazolo[1,5-a]pyridine-7-carbonitrile], inhibition was half-maximal at 620 nM (IC50).

With `C[C@@H]1CN(c2ccc(C#N)n3nccc23)C[C@H](CN2CCC3(CCNC3)C2)O1` (stereo partly drawn) [Example 6, 4-[(2S,6R)-2-(2,7-diazaspiro[4.4]nonan-2-ylmethyl)-6-methyl-morpholin-4-yl]pyrazolo[1,5-a]pyridine-7-carbonitrile], half-maximal inhibition (IC50) was put at 140 nM.

On to `C[C@@H]1CN(c2ccc(C#N)n3nccc23)C[C@H](CN2CC[C@H](N)[C@H](C)C2)O1` [Example 74, 4-[(2S,6R)-2-[[(3R,4S)-4-amino-3-methyl-1-piperidyl]methyl]-6-methyl-morpholin-4-yl]pyrazolo[1,5-a]pyridine-7-carbonitrile], for which it took 39 nM to reach half-maximal inhibition (IC50).

For the compound `C[C@@H]1CN(c2ccc(C#N)n3nccc23)C[C@H](CN2CCC3(CN(C)CCO3)C2)O1` (stereo partly drawn) [Example 76, 4-[(2R,6S)-2-methyl-6-[(9-methyl-6-oxa-2,9-diazaspiro[4.5]decan-2-yl)methyl]morpholin-4-yl]pyrazolo[1,5-a]pyridine-7-carbonitrile], the IC50 came out at 340 nM.

For the compound `C[C@@H]1CN(c2ccc(C#N)n3nccc23)C[C@H](CN2CCC(CCN)CC2)O1` [Example 13, 4-[(2S,6R)-2-[[4-(2-aminoethyl)-1-piperidyl]methyl]-6-methyl-morpholin-4-yl]pyrazolo[1,5-a]pyridine-7-carbonitrile], half-maximal inhibition (IC50) was put at 740 nM. Compared with the last compound, the IC50 is about 2.2-fold higher.

The compound `C[C@@H]1CN(c2ccc(C#N)n3ncc(F)c23)C[C@H](CN2CCCC3(CCNCC3)C2)O1` [Example 67, 4-[(2S,6R)-2-(2,9-diazaspiro[5.5]undecan-2-ylmethyl)-6-methyl-morpholin-4-yl]-3-fluoro-pyrazolo[1,5-a]pyridine-7-carbonitrile] displayed a 50% inhibitory concentration (IC50) of 38 nM.

The compound `C[C@@H]1CN(c2ccc(C#N)n3nccc23)C[C@H](CN2CCC(N)CC2)O1` [Example 17, 4-[(2S,6R)-2-[(4-amino-1-piperidyl)methyl]-6-methyl-morpholin-4-yl]pyrazolo[1,5-a]pyridine-7-carbonitrile] displayed an IC50 of 58 nM.

The compound `C[C@@H]1CN(c2ccc(C#N)n3nccc23)C[C@H](CN2CCCC3(CCNCC3)C2)O1` [Example 32, 4-[(2S,6R)-2-(2,9-diazaspiro[5.5]undecan-2-ylmethyl)-6-methyl-morpholin-4-yl]pyrazolo[1,5-a]pyridine-7-carbonitrile] gave a half-inhibitory concentration (IC50) of 91 nM.

Compound `C[C@@H]1CN(c2ccc(C#N)n3nccc23)C[C@H](CN2CCNCC2Cc2ccccc2)O1` (stereo partly drawn) [Example 59, 4-[(2S,6R)-2-[(2-benzylpiperazin-1-yl)methyl]-6-methyl-morpholin-4-yl]pyrazolo[1,5-a]pyridine-7-carbonitrile] registered a half-inhibitory concentration (IC50) of 6 nM.

As to `CC1CC(N)CCN1C[C@H]1CN(c2ccc(C#N)n3nccc23)C[C@@H](C)O1` (stereo partly drawn) [Example 51, 4-[(2S,6R)-2-[(4-amino-2-methyl-1-piperidyl)methyl]-6-methyl-morpholin-4-yl]pyrazolo[1,5-a]pyridine-7-carbonitrile], it took 40 nM to reach half-maximal inhibition (IC50).

Compound `C[C@@H]1CN(c2ccc(C#N)n3nccc23)C[C@H](CN2C3CNCC2COC3)O1` [Example 57, 4-[(2R,6S)-2-methyl-6-(3-oxa-7,9-diazabicyclo[3.3.1]nonan-9-ylmethyl)morpholin-4-yl]pyrazolo[1,5-a]pyridine-7-carbonitrile] registered a half-maximal inhibitory concentration (IC50) of 62 nM.

With `C[C@@H]1CN(c2ccc(C#N)n3nccc23)C[C@H](CN2C3CCCC2CC(N)C3)O1` (stereo partly drawn) [Example 66, Exo-4-[(2S,6R)-2-[(3-amino-9-azabicyclo[3.3.1]nonan-9-yl)methyl]-6-methyl-morpholin-4-yl]pyrazolo[1,5-a]pyridine-7-carbonitrile], half-maximal inhibition (IC50) was put at 140 nM.

The compound `C[C@@H]1CN(c2ccc(C#N)n3nccc23)C[C@H](CN2CC3CCC(C2)C3N)O1` (stereo partly drawn) [Example 36, 4-[(2S,6R)-2-[(8-amino-3-azabicyclo[3.2.1]octan-3-yl)methyl]-6-methyl-morpholin-4-yl]pyrazolo[1,5-a]pyridine-7-carbonitrile] registered a half-inhibitory concentration (IC50) of 90 nM.

Take `C[C@@H]1CN(c2ccc(C#N)n3nccc23)C[C@H](CN2C3CCCC2CC(N)C3)O1` (stereo partly drawn) [Example 65, Endo-4-[(2S,6R)-2-[(3-amino-9-azabicyclo[3.3.1]nonan-9-yl)methyl]-6-methyl-morpholin-4-yl]pyrazolo[1,5-a]pyridine-7-carbonitrile]: it took 64 nM to reach half-maximal inhibition (IC50).

On to `C[C@@H]1CN(c2ccc(C#N)n3nccc23)C[C@H](CN2CC3CNCCC32)O1` (stereo partly drawn) [Example 52, 4-[(2S,6R)-2-(3,7-diazabicyclo[4.2.0]octan-7-ylmethyl)-6-methyl-morpholin-4-yl]pyrazolo[1,5-a]pyridine-7-carbonitrile], for which half-maximal inhibition (IC50) was put at 53 nM.

In turn, `C[C@@H]1CN(c2ccc(C#N)n3nccc23)C[C@H](CN2CCC3(CCNC3)C2=O)O1` (stereo partly drawn) [Example 21, 4-[(2R,6R)-2-methyl-6-[(1-oxo-2,7-diazaspiro[4.4]nonan-2-yl)methyl]morpholin-4-yl]pyrazolo[1,5-a]pyridine-7-carbonitrile] showed an IC50 of 39 nM.

`CC1CN(C[C@H]2CN(c3ccc(C#N)n4nccc34)C[C@@H](C)O2)CCN1` (stereo partly drawn) [Example 28, 4-[(2R,6S)-2-methyl-6-[(3-methylpiperazin-1-yl)methyl]morpholin-4-yl]pyrazolo[1,5-a]pyridine-7-carbonitrile] had an IC50 of 65 nM.

In turn, `C[C@@H]1CN(c2ccc(C#N)n3nccc23)C[C@H](CN2CCC3(CCCN3)CC2)O1` [Example 53, 4-[(2S,6R)-2-(1,8-diazaspiro[4.5]decan-8-ylmethyl)-6-methyl-morpholin-4-yl]pyrazolo[1,5-a]pyridine-7-carbonitrile] yielded an IC50 of 29 nM.
